Patent US4520007A, “Anti-coagulants of the 4-hydroxycoumarin type and rodenticidal compositions (baits) comprising such anti-coagulants” (priority 1982, dated 1985)
Entries after “also recorded” stand apart in the source; their conditions may differ. Where two headings read alike, the source gives them in different places.

Tests used:
[1] = test system: Prothrombin time (blood clotting); assay: Prothrombin time ED50 (3 days after intraperitoneal injection); format: in vivo, rat (male Wistar strain); settings: for ED50: Rattus norvegicus, S100, ip, 72 h, read-out: 3-day ED50 (Prothrombin time ED50); for anticoagulant activity (comparison in words): compared with Brodifacoum or Difenacoum
Experimental: Compounds in accordance with the invention, and other substituted 4-hydroxy coumarin compounds not within the invention, including Brodifacoum, Difenacoum and Warfarin, were tested as described in the following examples. The Prothrombin time ED50 value is the most reliable method for measuring anticoagulant activity. The LD50 value is of significance in regard to the potency of the compound as a rodenticide.
A preliminary test was carried out to reliably rank the potential rodenticides in order of anticogulant potency.
The method used involved measurement of the Prothrombin time (a measure of blood clotting properties) which is based on that described in a paper by Quick, A. J., Stanley-Brown, M. and Bankoft. F. W. entitled "Study of Coagulation Defect in Haemophilia and in Jaundice" in American Journal of Medical Science, Vol. 190, pages 501-511, 1935. The compounds were dissolved in a 1:9 v/v mixture of triethanolamine and polyethylene glycol 200 Mol Wt and serially diluted to give appropriate doses in 1 ml per 1 kg of animal body weight. The doses were injected into the test animals by the interperitoneal route. Three days after injection, blood was withdrawn by cardiac puncture whilst the test animals (200-250 g Wistar strain male rats) were held under "Halothane" anaesthesia.
Three rats were used in each test of a given compound, and three prothrombin time determinations were carried out on each blood sample. Prothrombin times were determined using the modified one-stage method of Quick. The percentage extension time of each prothrombin time was determined by assigning 0% extension time to an arbitary prothrombin resting time of 12 seconds, and 100% extension time to a prothrombin time elevated to an arbitrary 212 seconds. Results were plotted on log-probability graph paper, the best-line fitted, and the prothrombin the ED50 read from the graph.

[2] = test system: female rats Homozygous--Resistant Welsh strain; assay: 24h no-choice bait feeding test, resistant rats, deaths up to 21 days; format: in vivo, rat (female; settings: 24h no-choice feed
Experimental: (§1) Appropriate amounts of Compounds 1,2,3 and 5 were dissolved in acetone and slurried onto rolled oats to give final bait concentrations of 20 ppm for Compounds 1 and 2; and 50 ppm for Compounds 3 and 5. Each bait was offered as a 24h no-choice feed to groups of five individually caged female rats Homozygous--Resistant Welsh strain; and similarly to groups of five individually caged male and female mice (Cambridge Cream Resistant strain).

[3] = test system: male and female mice (Cambridge Cream Resistant strain); assay: 24h no-choice bait feeding test, resistant mice, deaths up to 21 days; format: in vivo, mouse (Cambridge Cream Resistant strain); settings: 24h no-choice feed
Experimental: as §1

male rats, Wistar strain = assay: 5 day no-choice bait feeding test, deaths up to 21 days; format: in vivo, rat (male; settings: 5 day no-choice feed
Experimental: Appropriate amounts of Compounds 1, and 3 and 5 were dissolved in acetone, serially diluted, and slurried onto rolled oats to give final bait concentrations of 5.0, 2.0, 0.5 and 0.2 ppm for Compound 1 and 20.0, 10.0, […] and 2.0 ppm for Compounds 3 and 5. Each bait was offered as a 5 day no-choice feed to groups of five individually caged male rats, Wistar strain.

vitamin K reductase = settings: literature: Fasco et al 1982; Park et al 1982; cited from earlier work
[4] = test system: vitamin K 2, 3-epoxide reductase; settings: literature: Fasco et al 1982; Park et al 1982; cited from earlier work
[5] = test system: Warfarin-resistant rodents; settings: prior art; cited from earlier work
[6] = male Wistar rats 200-250 g, single intraperitoneal injection, blood taken three days after injection, ED50 = 50% extension of prothrombin time (0% = 12 s, 100% = 212 s)

| Compound | ED50 [1, 6] | also measured |
| --- | --- | --- |
| CCCCCCC1Cc2ccccc2C(c2c(O)c3ccccc3oc2=O)C1 (stereo not drawn) [Compound 30, reference compound] | 14 mg/kg | – |
| O=c1oc2ccccc2c(O)c1[C@@H]1C[C@@H](c2ccc(OCc3ccccc3)cc2)Cc2ccccc21 (relative stereo) [Compound 14, reference compound] | 4.3 mg/kg | anticoagulant activity (comparison in words) [1]: activity much lower than similarly structured Difenacourm |
| N#Cc1ccc(-c2ccc([C@@H]3Cc4ccccc4[C@H](c4c(O)c5ccccc5oc4=O)C3)cc2)cc1 (relative stereo) [Compound 2] | 0.31 mg/kg | Death up to 21 days, rats ([2]; bait 20.0 ppm): 5/5; Death up to 21 days, mice ([3]; bait 20.0 ppm): 4/5 |
| O=c1oc2ccccc2c(O)c1C1CC(c2ccc([N+](=O)[O-])cc2)Cc2ccccc21 (stereo not drawn) [Compound 9] | 0.8 mg/kg | – |
| N#Cc1ccc(Oc2ccc(C3Cc4ccccc4C(c4c(O)c5ccccc5oc4=O)C3)cc2)cc1 (stereo not drawn) [Compound 10] | 0.41 mg/kg | – |
| O=c1oc2ccccc2c(O)c1C1CC(c2ccc(/C=C/c3ccc(Br)cc3)cc2)Cc2ccccc21 (stereo not drawn) [Compound 21] | 0.8 mg/kg | – |
| N#Cc1ccc(-c2ccc([C@H]3Cc4ccccc4[C@H](c4c(O)c5ccccc5oc4=O)C3)cc2)cc1 (relative stereo) [Compound 1] | 0.45 mg/kg | Deaths up to 21 days (male rats, Wistar strain; bait 0.2 ppm): 0/5; Deaths up to 21 days (male rats, Wistar strain; bait 0.5 ppm): 5/5; Deaths up to 21 days (male rats, Wistar strain; bait 2.0 ppm): 5/5; Deaths up to 21 days (male rats, Wistar strain; bait 5.0 ppm): 5/5; Death up to 21 days, rats ([2]; bait 20.0 ppm): 5/5; Death up to 21 days, mice ([3]; bait 20.0 ppm): 5/5 |
| O=c1oc2ccccc2c(O)c1C1CC(c2ccc(-c3ccccc3)cc2)Cc2ccccc21 (stereo not drawn) [Difenacoum] | – | inhibiting ability, vitamin K reductase (vitamin K reductase): have this inhibiting ability; inhibiting ability, vitamin K 2,3-epoxide reductase [4]: have this inhibiting ability; effectiveness against Warfarin-resistant rodents [5]: effective against Warfarin-resistant rodents; ED50 [1]: 0.56 mg/kg; activity relative to Brodifacoum ([1]; rat, in vivo): about 36% |
| O=c1oc2ccccc2c(O)c1C1CC(c2c(Cl)cccc2Cl)Cc2ccccc21 (stereo not drawn) [Compound 26, reference compound] | 10 mg/kg | – |
| O=c1oc2ccccc2c(O)c1C1CC(c2ccc(C(F)(F)F)cc2)Cc2ccccc21 (stereo not drawn) [Compound 3] | 0.59 mg/kg | Deaths up to 21 days (male rats, Wistar strain; bait 2.0 ppm): 5/5; Deaths up to 21 days (male rats, Wistar strain; bait 5.0 ppm): 5/5; Deaths up to 21 days (male rats, Wistar strain; bait 10.0 ppm): 5/5; Deaths up to 21 days (male rats, Wistar strain; bait 20.0 ppm): 5/5; Death up to 21 days, rats ([2]; bait 50.0 ppm): 5/5; Death up to 21 days, mice ([3]; bait 50.0 ppm): 3/5 |
| O=c1oc2ccccc2c(O)c1[C@@H]1C[C@@H](c2ccc(-c3ccc(C(F)(F)F)cc3)cc2)Cc2ccccc21 (relative stereo) [Compound 24, 3[3-(4'-trifluoromethyl-4-yl)-1,2,3,4-tetrahydro-1-naphthyl]-4hydroxycoumarin] | 0.47 mg/kg | – |
| O=c1oc2ccccc2c(O)c1C1CC(c2ccc(-c3ccc(Br)cc3)o2)Cc2ccccc21 (stereo not drawn) [Compound 8] | 0.78 mg/kg | – |
| O=c1oc2ccccc2c(O)c1C1CC(c2ccc(CCCc3ccc(Cl)cc3)cc2)Cc2ccccc21 (stereo not drawn) [Compound 23] | 0.23 mg/kg | anticoagulant activity (comparison in words) [1]: activity greater than Brodifacoum |
| CC(=O)CC(c1ccccc1)c1c(O)c2ccccc2oc1=O (stereo not drawn) [Warfarin] | 5.2 mg/kg | inhibiting ability, vitamin K reductase (vitamin K reductase): have this inhibiting ability; inhibiting ability, vitamin K 2,3-epoxide reductase [4]: have this inhibiting ability |
| O=c1oc2ccccc2c(O)c1C1CC(c2ccc(OCc3ccc(C(F)(F)F)cc3)cc2)Cc2ccccc21 (stereo not drawn) [Compound 13] | 0.32 mg/kg | – |
| O=c1oc2ccccc2c(O)c1C1CC(c2ccccc2-c2ccc(C(F)(F)F)cc2)Cc2ccccc21 (stereo not drawn) [Compound 27, reference compound] | > 10 mg/kg | – |

| Compound | ED50 [1, 6] | also measured |
| --- | --- | --- |
| O=c1oc2ccccc2c(O)c1C1CC(c2ccc(OCc3ccc(F)cc3)cc2)Cc2ccccc21 (stereo not drawn) [Compound 15] | 0.47 mg/kg | – |
| N#Cc1ccc(CCc2ccc(C3Cc4ccccc4C(c4c(O)c5ccccc5oc4=O)C3)cc2)cc1 (stereo not drawn) [Compound 19] | 0.9 mg/kg | – |
| N#Cc1ccc(COc2ccc(C3Cc4ccccc4C(c4c(O)c5ccccc5oc4=O)C3)cc2)cc1 (stereo not drawn) [Compound 12] | 0.8 mg/kg | – |
| O=c1oc2ccccc2c(O)c1C1CC(c2ccc(-c3ccc(Br)cc3)cc2)Cc2ccccc21 (stereo not drawn) [Brodifacoum] | 0.28 mg/kg | inhibiting ability, vitamin K reductase (vitamin K reductase): have this inhibiting ability; inhibiting ability, vitamin K 2,3-epoxide reductase [4]: have this inhibiting ability; effectiveness against Warfarin-resistant rodents [5]: effective against Warfarin-resistant rodents; also recorded: effectiveness against Warfarin-resistant rodents; anticoagulant activity (comparison in words) [1]: particularly notable activity |
| O=c1oc2ccccc2c(O)c1C1CC(CCCc2ccccc2)Cc2ccccc21 (stereo not drawn) [Compound 29, reference compound] | 14.1 mg/kg | – |
| O=c1oc2ccccc2c(O)c1C1CC(c2ccc(OCc3ccc(Br)cc3)cc2)Cc2ccccc21 (stereo not drawn) [Compound 11] | 0.27 mg/kg | anticoagulant activity (comparison in words) [1]: activity greater than Brodifacoum |
| O=c1oc2ccccc2c(O)c1C1CC(c2ccc(CCc3ccc(Br)cc3)cc2)Cc2ccccc21 (stereo not drawn) [Compound 17] | 0.37 mg/kg | – |
| O=c1oc2ccccc2c(O)c1C1CC(c2ccc3c(c2)CCCC3)Cc2ccccc21 (stereo not drawn) [Compound 28, reference compound] | 10 mg/kg | – |
| N#Cc1ccc(C2Cc3ccccc3C(c3c(O)c4ccccc4oc3=O)C2)cc1 (stereo not drawn) [Compound 7] | 0.54 mg/kg | – |
| O=c1oc2ccccc2c(O)c1C1CC(c2ccc(/C=C/c3ccccc3)cc2)Cc2ccccc21 (stereo not drawn) [Compound 22] | 0.8 mg/kg | – |
| O=c1oc2ccccc2c(O)c1C1CC(c2ccc(Oc3ccc(C(F)(F)F)cc3)cc2)Cc2ccccc21 (stereo not drawn) [Compound 20] | 0.23 mg/kg | anticoagulant activity (comparison in words) [1]: activity greater than Brodifacoum |
| O=c1oc2ccccc2c(O)c1[C@@H]1C[C@H](c2ccc(-c3ccc(C(F)(F)F)cc3)cc2)Cc2ccccc21 (relative stereo) [Compound 25, 3[3-(4'-trifluoromethyl-4-yl)-1,2,3,4-tetrahydro-1-naphthyl]-4hydroxycoumarin] | 0.46 mg/kg | – |
| O=c1oc2ccccc2c(O)c1C1CC(c2ccc(CCc3ccc(Cl)cc3)cc2)Cc2ccccc21 (stereo not drawn) [Compound 18] | 0.27 mg/kg | anticoagulant activity (comparison in words) [1]: activity greater than Brodifacoum |
| O=c1oc2ccccc2c(O)c1C1CC(Cc2ccc(Cl)cc2Cl)Cc2ccccc21 (stereo not drawn) [Compound 6] | 1.8 mg/kg | – |
| O=c1oc2ccccc2c(O)c1C1CC(c2ccc(OCc3ccc(Cl)c(Cl)c3)cc2)Cc2ccccc21 (stereo not drawn) [Compound 16] | 0.43 mg/kg | – |
